{"source": "patent US20240062912A1", "about": "“METHODS FOR DETERMINING LIVER FUNCTION COMPRISING A MULTI-COMPARTMENTAL MODEL” (HepQuant, LLC, priority 2022, published 2024)", "origin": "cited, not measured here", "conditions": "cited from earlier work", "key": {"[1]": {"conditions": "healthy controls, previous studies"}}, "data": [{"compound": "[2H]C1([2H])C[C@@]2(C)[C@H](C[C@@H](O)[C@@H]3[C@@H]2C[C@H](O)[C@]2(C)[C@@H]([C@H](C)CCC(=O)O)CC[C@@H]32)C([2H])([2H])[C@@H]1O", "note": "[d4-CA, cholic-acid-2,2,4,4-d4]", "values": [{"measurement": "SHUNT", "setting": "diseased liver", "result": "30-90%"}, {"measurement": "STAT", "setting": "diseased liver", "result": "0.6 to 5", "unit": "µM"}, {"measurement": "portal HFR (FLOW)", "setting": "diseased liver", "result": "20 to 2", "unit": "mL/min/kg"}, {"measurement": "average HFR (FLOW)", "setting": "[1]", "result": 30, "unit": "mL/min/kg"}, {"measurement": "average SHUNT", "setting": "[1]", "result": "~20", "unit": "%"}, {"measurement": "average STAT value", "setting": "[1]", "result": "~0.4"}]}]}
